Entries after “also recorded” stand apart in the source; their conditions may differ. Like-named read-outs stand apart in the source and are kept apart here.
Columns and labels:
Ki-ras clones 60 and 66 = assay: cells; details: Homo sapiens
MCA sarcoma = details: in vivo; cited from earlier work
[1] = human, in vivo
polyamine levels = format: in vivo, human
Text: Based on this information a dose of 0.2 Gm/M^2 /day will be used for the current trial.

hearing [2] = assay: DFMO effects on hearing / ototoxicity in patients; details: 0.25 g/m^2 /d
[3] = system: tumors harboring Ki-ras mutations in AOM-treated rats; details: cited from earlier work
Caco-2 parental cells [4] = assay: Induction of apoptosis (light microscopy) in Caco-2 parental cells; format: cell-based, human; details: 5 mM DFMO, with or without sulindac sulfone (so in the source); parental Caco-2
Procedure: (§1) FIG. 3. […] Apoptosis was determined by light microscopy.
(§2) FIG. 8. […] Cells were grown over a period of 6 days. Cells were harvested at various days (0, 2, 4 and 6 days), spun onto slides and stained. Apoptosis was determined by light microscopy. Percentage of apoptotic cells was calculated as the number of apoptotic cells out of the total cells counted times 100. At least 500 cells were counted for each sample.
(§3) Cells were grown over a period of 6 days. Cells were harvested at various days (0, 2, 4 and 6 days), spun onto slides and stained. Apoptosis was determined by light microscopy. Percentage of apoptotic cells was calculated as the number of apoptotic cells out of the total cells counted times 100.

platelet counts = details: continuous infusion for 12 days; cited from earlier work
[5] = system: tissue polyamine contents (Barrett's lesion, normal squamous esophagus, gastric tissue, small bowel); assay: DFMO in Barrett's esophagus patients, tissue polyamine contents; format: in vivo, human; details: 1.5 gm/m^2 per day, 12 weeks
Text: ODC activities and polyamine contents varied in each site analyzed. The rank orders were Barrett's>small bowel~normal esophagus>gastric tissue for ODC activities, and small bowel≥Barrett's~normal esophagus>gastric tissue for putrescine contents.

Caco-2 parental cells [6] = details: long-term survival, Caco-2 cells
Ki-ras clone #60 = assay: Induction of apoptosis (light microscopy) in Ki-ras clone 60; format: cell-based, human; details: day 6, 5 mM DFMO, with or without sulindac sulfone (so in the source)
Procedure: as §1, §2, §3

hearing [7] = details: cited from earlier work
human cancer = details: cited from earlier work
[8] = system: ODC and polyamine contents; assay: DFMO effect on colorectal and buccal mucosa ODC and polyamine contents; format: in vivo, human
Text: When the inventors started these studies, their hope was that the effects of polyamine syntheses inhibitors in easily accessible tissues, such as buccal mucosa in the oral cavity, would be representative of inhibitor effects in less accessible tissue of the gastrointestinal tract. To test this hypothesis, the inventors measured ODC activity and polyamine contents in buccal mucosa isolated from normal human volunteers. […] From these studies, the inventors concluded that the buccal mucosal was not a useful surrogate tissue in which to measure the effects of polyamine synthesis inhibitor on other GI tissues.

[9] = system: ornithine decarboxylase (ODC); details: cited from earlier work
Ki-ras clone #60 cells = assay: Clonogenic assay (colony-forming efficiency), Ki-ras clone 60; format: cell-based, human; details: Homo sapiens, Caco-2, 24 h; read-out: decrease in cell survival compared to untreated transfectants
[10] = system: intracellular putrescine and spermidine; details: cited from earlier work
tumor putrescine levels = details: DFMO infusion, cited from earlier work
[11] = system: carcinogenesis in rodent/animal models; details: in vivo; cited from earlier work
[12] = system: Caco-2 parental cells, Ki-ras clone #60 and Ki-ras clone #66; assay: Viable cell number (trypan blue dye exclusion), growth of Caco-2 parental and Ki-ras transfected cells; format: cell-based, human; details: 5 mM DFMO continuously, short-term growth
Procedure: Effect of sulindac sulfide and sulfone on the growth of Ki-ras transfected cells. […] Viable cell number was determined by trypan blue dye exclusion.
Caco-2 cells were maintained in Modified Eagle Media (GIBCO, Grand Island, N.Y.) supplemented with 10% fetal bovine serum and a 1% penicillin (10,000 units/ml)-streptomycin (10,000 mg/ml) solution (GIBCO, Grand Island, N.Y.). Transfected Caco-2 cells resistant to neomycin were maintained in 400 μg/ml G418. Cells were maintained at 37° in the presence of 5% CO2 in air.
All cells were passed into new medium every two to three days, just prior to confluence. Drug additions were performed at the time of cell seeding and in MEM for each cell line unless otherwise noted. […] The two metabolites of sulindac, sulindac sulfone and sulfide, were obtained from Cell Pathways, Inc. (Horsham Pa.).
Caco-2 cells were removed from the monolayer by treatment with trypsin (1500 units/ml, Calbiochem, San Diego, Calif.)-EDTA (.7mM) and counted using a hemocytometer. A sample of the cell suspension was combined in a 1:1 volume ratio with trypan blue dye (GIBCO, Grand Island, N.Y.), and at least two independently prepared suspensions were counted on a hemocytometer, two counts each. For all cell types, viability was determined by the percentage of cells able to exclude the trypan blue dye.

Caco-2 parental cells [13] = assay: cells; details: Homo sapiens, Caco-2, 24 h, read-out: cell survival
[14] = system: colorectal tissue polyamine contents
Procedure: All biopsies were performed between 9:00 a.m. and noon to avoid possible effects of diurnal variation in laboratory endpoints.

[15] = system: AOM-treated rat model of colon carcinogenesis; details: in vivo; cited from earlier work
[16] = system: AOM-treated rat model of colon carcinogenesis; assay: Colon carcinogenesis in the AOM-treated rat / rodent model; details: sulfoxide and sulfone forms
[17] = system: colorectal adenomas/polyps; details: cited from earlier work
COX (cyclooxygenase) = details: cited from earlier work
[18] = cited from earlier work
[19] = sulindac 400 mg per day; cited from earlier work
[20] = cited from earlier work; remark: listed apart in the source
[21] = system: colorectal adenomas/polyps; assay: Sulindac effect on colorectal adenomas/polyps in patients; details: randomized phase IIb
[22] = listed as α-Difluoromethylornithine (DFMO)

NCCCC(N)(C(=O)O)C(F)F (racemic) [DFMO, 2(Difluoromethyl)-DL-ornithine]
IC50 (Ki-ras clones 60 and 66; 24 h, read-out: concentration at 50% cell survival): 500 µM
minimal effective concentration (Ki-ras clones 60 and 66; 24 h, read-out: lowest concentration (selectively) toxic to cells with an activated Ki-ras): 50 µM
viability at 5000 µM (Ki-ras clones 60 and 66; Caco-2, 24 h, read-out: cell survival, of controls): 20 to 40%
inhibition at 5000 µM (Ki-ras clones 60 and 66; Caco-2, 24 h, read-out: reduction of colony-forming efficiency of the Ki-ras transfectants): 40%
growth of MCA sarcoma (MCA sarcoma): reduces the growth rate of an MCA sarcoma but does not produce tumor regression
wound healing problems [1]: problems with wound healing have not been experienced
lowest dose that may produce a persistent effect on polyamine levels (polyamine levels; 12 months): 0.10 Gm/M^2 /day
audiotoxicity (polyamine levels; in vivo): no audiotoxicity was evident
patients coming off study (polyamine levels; in vivo): came off study more frequently
side-effects after one year (polyamine levels; in vivo): equivalent to placebo
expected onset of hearing loss (hearing [2]): > 800 days
amount of biochemically active p21 ras in existing tumors [3]: reduced the amount of biochemically active p21 ras in existing tumors
tumors harboring Ki-ras mutations ([3]; reduced from 90%): 36%
increase in apoptosis (Caco-2 parental cells [4]): only a modest increase in apoptosis
platelet counts (platelet counts): significantly reduces platelet counts compared with controls
spermidine contents ([5]; Barrett's lesions and normal squamous esophageal tissue): suppressed by systemic DFMO treatment and recovered to untreated control values when DFMO therapy was discontinued
spermidine and spermine levels ([5]; gastric tissue and small bowel): did not affect the levels of either of these two amines in gastric tissue and small bowel
effect of DFMO on toxicity of the sulindac metabolites (Caco-2 parental cells [6]): did not increase the toxicity of the sulindac metabolites in long-term survival studies
percentage of apoptotic cells (Ki-ras clone #60): 15%
effects on hearing (hearing [7]; 0.4gr/M^2 /day for up to one year): not observed
audiometric changes (hearing [7]; about 6 months at 0.50 g/m^2 /d (total dose 90 gm)): no audiometric changes
patients with hearing losses (hearing [7]; cumulative doses above 250 g/m^2): up to 75 % of patients
patients with demonstrable hearing deficit (hearing [7]; cumulative doses below 150 g/m^2): less than 10 % of the patients
effects on hearing / hearing loss, reversibility (hearing [7]; other clinical trials): hearing loss, which was reversible after the drug treatment was discontinued; also recorded: totally reversible upon drug discontinuation; also recorded: effects on hearing at high doses of 4 gr/M^2 /day that resolve when it is discontinued
activity in chemotherapy trials (human cancer; human cancer): not to be an active cytotoxic agent
activity in malignant brain tumors (human cancer; malignant brain tumors): moderate activity
buccal mucosal ODC and polyamine contents ([8]; buccal mucosa): unaffected
polyamine contents in colorectal tissue biopsies ([8]; colorectal tissue): reduced polyamine contents in colorectal tissue biopsies
inhibition of ODC [9]: powerful inhibitor of ODC, both in vitro and in vivo
inhibition of ODC [9, 22]: enzyme-activated, irreversible inhibitor of ornithine decarboxylase (ODC)
cytotoxicity at 5000 µM (Ki-ras clone #60 cells): 60%
uptake of exogenous putrescine ([10]; cells treated in vivo): significantly increase their uptake of exogenous putrescine
intracellular polyamine concentrations [10]: decrease in putrescine and spermidine concentrations
intracellular polyamine concentrations [10, 22]: depletion in the intracellular concentrations of putrescine and its derivative, spermidine
decrease in tumor putrescine levels (tumor putrescine levels; rat-tumor model): 90%
peripheral platelet counts (tumor putrescine levels): without suppressing peripheral platelet counts
chemoprevention / inhibition of tumor development in animal models [11]: potent inhibitor of carcinogenesis; also recorded: inhibits the development of many cancers including carcinogen-induced colon polyps and cancer; also recorded: inhibits colon carcinogenesis in carcinogen-treated rodents
trypan blue dye exclusion [12]: exclusion of trypan blue dye in either the Ki-ras cells or parentals was unaffected
viability at 5000 µM (Caco-2 parental cells [13]): ~100%
lowest dose safe and effective in reducing colorectal mucosal polyamine contents ([14]; daily orally, 28 days): 0.25 gm/m^2
lowest dose with evident effects on polyamine metabolism ([14]; phase IIa, one month): 0.2 Gm/M^2 /day
lowest dose decreasing putrescine content ([14]; single daily oral doses, 4 wk, colorectal biopsies): 0.25 gm/m^2

CC1=C(CC(=O)O)c2cc(F)ccc2/C1=C\c1ccc([S+](C)[O-])cc1 (stereo not drawn) [sulindac, (Z)-5-Fluoro-2-methyl-1-((4 (methylsulfinyl)phenyl)methylene) 1H-indene-3-acetic acid]
Ki-ras mutation / tumors harboring an activated Ki-ras [3]: reduces the number of tumors harboring an activated Ki-ras
apoptosis in AOM-treated rodent model [15]: cause apoptosis
inhibition of colon carcinogenesis in AOM-treated rat model [15]: effectively inhibit colon carcinogenesis
inhibition of carcinogenesis in the AOM-treated rat [16]: inhibit carcinogenesis in the AOM-treated rat, with similar potencies
regression of adenomas in FAP patients ([17]; FAP patients): regression of adenomas
clinical regression of polyps ([17]; several studies): can cause clinical regression of polyps
effect on sporadic adenomas ([17]; sporadic adenomas): no such effect
COX / prostaglandin synthesis inhibition (COX (cyclooxygenase)): inhibit cycloxygenase and prostaglandin synthesis
borderline elevations in one or more liver function test ([18]; human, in vivo): 15 % of clinical trial patients
gastrointestinal toxicity / ulceration ([18]; human, in vivo): serious gastrointestinal toxicity such as bleeding, ulceration, and perforation
meaningful elevations in liver function test (3 times upper limit of normal) ([18]; human, in vivo): less than 1%
mild gastrointestinal effects ([18]; human, in vivo): ~20 % of patients
skin rash and pruritus ([18]; human, in vivo): 5 % of patients
gastrointestinal toxicity / ulceration ([18]; human, in vivo, listed as Sulindac): G.I. ulceration that in general is dose-related; also recorded: can produce gastric irritation and bleeding
granulocytosis, aplastic anemia, hemolytic anemia ([18]; rare adverse effects): less than 1%
gastrointestinal pain ([18]; therapeutic doses): 10%
analgesic and antiinflamatory effects [19]: comparable to those achieved by aspirin (4 g per day), ibuprofin (1200 mg per day), indomethacin (125 mg per day), and phenylbutazone (400 to 600 mg per day)
time of peak plasma levels ([20]; fasting patients): about 2 hours
half-life ([20]; human, in vivo, po): 7 h
mean half-life ([20]; human, in vivo, po): 7.8 h
absorption of drug ([20]; oral administration): about 90%
150 mg per day vs. twice per day [21]: comparable results
safety in phase IIb study [21]: safe
polyp regression and development of new polyps ([21]; 150 mg per day or twice per day): regression of extant polyps shown

— patent publication US6258845A (priority 1999, dated 2001)
